pKi: −log10 of the molar value.
Tests used:
[1] = tested on: Rattus norvegicus; assay: Plasma concentration in rat at 30 umol/kg, ip; type: ADME, organism-based; settings: in vivo
[2] = tested on: Rattus norvegicus; assay: Plasma concentration in rat at 100 umol/kg, ip; type: ADME, organism-based; settings: in vivo
[3] = Protein binding in ip dosed rat plasma; type: ADME, organism-based; settings: read-out: PPB (converted)
[4] = tested on: Rattus norvegicus; assay: Plasma concentration in rat at 80 umol/kg, ip; type: ADME, organism-based; settings: in vivo
[5] = tested on: Rattus norvegicus; assay: Antiinflammatory activity against carrageenan-induced hyperalgesia in rat assessed as increase in paw withdrawal at 300 umol/kg, ip relative to control; type: functional
[6] = tested on: Rattus norvegicus; assay: Plasma concentration in rat at 300 umol/kg, ip; type: ADME, organism-based; settings: in vivo
[7] = Terminal volume of distribution in rat at 10 mg/kg, iv; type: ADME, organism-based; set-up: dose 10 mg/kg, route intravenous; settings: in vivo, read-out: Vbeta
[8] = Terminal volume of distribution in mouse at 5 mg/kg, iv; type: ADME, organism-based; set-up: dose 5 mg/kg, route intravenous; settings: in vivo, read-out: Vbeta
[9] = Cmax in rat at 10 mg/kg, iv; type: ADME, organism-based; set-up: dose 10 mg/kg, route intravenous; settings: in vivo
[10] = Cmax in mouse at 5 mg/kg, iv; type: ADME, organism-based; set-up: dose 5 mg/kg, route intravenous; settings: in vivo
[11] = Half life in rat at 10 mg/kg, iv; type: ADME, organism-based; set-up: dose 10 mg/kg, route intravenous; settings: in vivo
[12] = Half life in mouse at 5 mg/kg, iv; type: ADME, organism-based; set-up: dose 5 mg/kg, route intravenous; settings: in vivo
[13] = Tmax in rat at 10 mg/kg, po; type: ADME, organism-based; set-up: dose 10 mg/kg, route oral; settings: in vivo
[14] = Tmax in mouse at 20 mg/kg, po; type: ADME, organism-based; set-up: dose 20 mg/kg, route oral; settings: in vivo
[15] = Bioavailability in rat at 10 mg/kg, po; type: ADME, organism-based; settings: in vivo
[16] = Bioavailability in mouse at 20 mg/kg, po; type: ADME, organism-based; settings: in vivo
[17] = Cmax in rat at 10 mg/kg, po; type: ADME, organism-based; set-up: dose 10 mg/kg, route oral; settings: in vivo
[18] = Cmax in mouse at 20 mg/kg, po; type: ADME, organism-based; set-up: dose 20 mg/kg, route oral; settings: in vivo
[19] = Half life in rat at 10 mg/kg, po; type: ADME, organism-based; set-up: dose 10 mg/kg, route oral; settings: in vivo
[20] = Half life in mouse at 20 mg/kg, po; type: ADME, organism-based; set-up: dose 20 mg/kg, route oral; settings: in vivo
[21] = target: Histamine H3 receptor (Homo sapiens, UniProt Q9Y5N1); assay: Binding affinity to human histamine H3 receptor
[22] = tested on: Mus musculus; assay: Antiinflammatory activity in zymosan-induced peritonitis in sc dosed BALB/c mouse model assessed as decrease in myeloperoxidase activity in peritoneal lavage; type: functional
[23] = tested on: Mus musculus; assay: Antiinflammatory activity in ip dosed CD1/ICR mouse assessed as reduction of clobenpropit-induced itching; type: functional
[24] = Plasma concentration in mouse at 25 umol/kg, ip after 30 mins; type: ADME, organism-based
[25] = tested on: Rattus norvegicus; assay: Antiinflammatory activity against carrageenan-induced thermal hyperalgesia in rat assessed as increase in paw withdrawal at 100 umol/kg, ip relative to control; type: functional
[26] = tested on: Rattus norvegicus; assay: Antiinflammatory activity against carrageenan-induced thermal hyperalgesia in ip dosed rat assessed as increase in paw withdrawal; type: functional

Histamine H3 receptor, sequence (Q9Y5N1 whole entry): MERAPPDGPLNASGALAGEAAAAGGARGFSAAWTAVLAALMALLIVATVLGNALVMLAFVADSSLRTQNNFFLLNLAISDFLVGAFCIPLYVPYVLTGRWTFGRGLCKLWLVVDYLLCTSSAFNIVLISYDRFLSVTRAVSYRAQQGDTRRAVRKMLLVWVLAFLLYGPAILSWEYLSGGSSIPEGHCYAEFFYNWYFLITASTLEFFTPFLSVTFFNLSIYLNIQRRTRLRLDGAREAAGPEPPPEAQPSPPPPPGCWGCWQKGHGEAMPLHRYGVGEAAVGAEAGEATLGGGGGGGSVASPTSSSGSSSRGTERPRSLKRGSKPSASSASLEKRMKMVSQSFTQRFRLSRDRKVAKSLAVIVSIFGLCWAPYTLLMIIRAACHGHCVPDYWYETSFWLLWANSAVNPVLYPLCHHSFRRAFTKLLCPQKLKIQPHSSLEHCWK

CN1CCN(C(=O)c2cc3cc(Cl)ccc3[nH]2)CC1 [JNJ-7777120] gave a Cp [1] of 0.432 µg/mL, a Cp [2] of 1.454 µg/mL and a fraction unbound [3] of 0.28. It also gave a Cp [4] of 1.2 µg/mL, an Activity [5] of 96% and a Cp [6] of 4.135 µg/mL. For the same molecule, the Vd [7] was 37 L/kg, the Vd [8] was 24 L/kg and the Cmax [9] was 1.14 µg/mL. It also gave a Cmax [10] of 0.56 µg/mL, a half-life [11] of 1.7 h and a half-life [12] of 0.7 h. For the same molecule, the Tmax [13] was 0.25 h, the Tmax [14] was 1.33 h and the bioavailability [15] was 47%. It also gave a bioavailability [16] of 24%, a Cmax [17] of 0.22 µg/mL and a Cmax [18] of 0.14 µg/mL. For the same molecule, the half-life [19] was 2.5 h, the half-life [20] was 1.4 h and the pKi [21] was 5.65. For the same molecule, the ED50 [22] was 61 µmol/kg, the ED50 [23] was 25 µmol/kg and the concentration at 0.5 h [24] was 0.86 µg/mL. For the same molecule, the Activity [25] was 49% and the ED50 [26] was 80 µmol/kg.

Reference: ChEMBL document CHEMBL1140148, “Structure-activity studies on a series of a 2-aminopyrimidine-containing histamine H4 receptor ligands” (J Med Chem, 2008)
